Measurements from the CheMixHub ionic liquid set.
Several values for one entry are separate records, joined by “and”; a condition that tells them apart may be missing. Identical values can stand only once. ± gives the uncertainty stated by the source.

Test: xn = mol fraction of the nth substance listed

CCCCn1cc[n+](CCCC)c1.O=S(=O)([N-]S(=O)(=O)C(F)(F)F)C(F)(F)F + O
100 kPa, x2 = 0.1843
Conditions	viscosity [mPa·s]
308.15 K	32.12 ± 0.28
358.15 K	7.83 ± 0.07
363.15 K	7.07 ± 0.06

CCOS(=O)(=O)[O-].CC[N+]1(C)CCCC1 + O
101 kPa
Conditions	viscosity [mPa·s]
313.15 K, x2 = 0	78 ± 13
313.15 K, x2 = 0.105	65 ± 10
318.15 K, x2 = 0	65 ± 10
318.15 K, x2 = 0.7542	8.9 ± 1.4
323.15 K, x2 = 0.7542	7.7 ± 1.2
333.15 K, x2 = 0.9652	0.99 ± 0.16
338.15 K, x2 = 0.6505	7.7 ± 1.2
338.15 K, x2 = 0.9652	0.98 ± 0.16
343.15 K, x2 = 0.6505	6.6 ± 1.1
343.15 K, x2 = 0.9652	0.98 ± 0.16

CC[NH+](CC)CC.O=S(=O)([O-])O + O
298.15 K, 101 kPa
Conditions	viscosity [mPa·s]
x2 = 0.3012	184 ± 19
x2 = 0.4244	169 ± 17
x2 = 0.6124	140 ± 13
x2 = 0.7344	110.8 ± 9.6
x2 = 0.9244	39.8 ± 2.8

CCCO + O + CCCCCCCCCCCCOS(=O)(=O)[O-].[Na+]
298 K, 100 kPa, frequency 0.001 MHz
Conditions	electrical conductivity [S/m]
x1 = 0.01544, x3 = 0	0.00015
x1 = 0.02615, x2 = 0.9739	0.00015
x1 = 0.04738, x2 = 0.9526	0.00011
x1 = 0.07176, x2 = 0.9282	0.00012
x1 = 0.1087, x2 = 0.8913	0.00014

CC(=O)[O-].[K+] + O + CCCC[n+]1ccn(C)c1.N#C[S-]
viscosity [mPa·s], 101 kPa
Conditions	298.15 K	308.15 K	313.15 K
x1 = 0.01175, x2 = 0.8368	–	–	4.625 ± 0.064
x1 = 0.1054, x2 = 0.8943	3.195 ± 0.029	2.485 ± 0.023	–

CC(=O)[O-].[K+] + O + CCCC[n+]1ccn(C)c1.O=S(=O)([O-])C(F)(F)F
Conditions	viscosity [mPa·s]
308.15 K, 101 kPa, x1 = 0.01574, x2 = 0.9011	1.515 ± 0.014

OC[C@H]1O[C@H](O[C@H]2[C@H](O)[C@@H](O)C(O)O[C@@H]2CO)[C@H](O)[C@@H](O)[C@@H]1O (stereo not given in full) + O + CCCC[n+]1ccn(C)c1.[Cl-]
298.15 K, 101.3 kPa
Conditions	electrical conductivity
x1 = 0.003591, x3 = 5.29e-06	0.00303 ± 3e-05 S/m
x1 = 0.003591, x3 = 8.39e-06	0.00457 ± 5e-05 S/m
x1 = 0.003591, x3 = 1.182e-05	0.00625 ± 6e-05 S/m
x1 = 0.003591, x3 = 1.516e-05	0.00787 ± 8e-05 S/m
x1 = 0.003591, x3 = 1.84e-05	0.00941 ± 9e-05 S/m
x1 = 0.003591, x3 = 2.179e-05	0.011 ± 0.00011 S/m
x1 = 0.003591, x3 = 2.475e-05	0.01239 ± 0.00012 S/m
x1 = 0.003591, x3 = 2.776e-05	0.0138 ± 0.00014 S/m
x1 = 0.003591, x3 = 3.087e-05	0.01519 ± 0.00015 S/m
x1 = 0.003591, x3 = 3.39e-05	0.0165 ± 0.00017 S/m
x1 = 0.003591, x3 = 3.679e-05	0.0179 ± 0.00018 S/m
x1 = 0.007156, x3 = 7.85e-06	0.00369 ± 4e-05 S/m
x1 = 0.007156, x3 = 1.182e-05	0.00532 ± 5e-05 S/m
x1 = 0.007156, x3 = 1.573e-05	0.00691 ± 7e-05 S/m
x1 = 0.007156, x3 = 1.984e-05	0.00855 ± 9e-05 S/m
x1 = 0.007156, x3 = 2.38e-05	0.01011 ± 0.0001 S/m
x1 = 0.007156, x3 = 2.785e-05	0.0117 ± 0.00012 S/m
x1 = 0.007156, x3 = 3.214e-05	0.01336 ± 0.00013 S/m
x1 = 0.007156, x3 = 3.627e-05	0.0149 ± 0.00015 S/m
x1 = 0.007156, x3 = 4.07e-05	0.0166 ± 0.00017 S/m
x1 = 0.007156, x3 = 4.483e-05	0.01815 ± 0.00018 S/m
x1 = 0.0107, x3 = 7.55e-06	0.0031 ± 3e-05 S/m
x1 = 0.0107, x3 = 1.145e-05	0.00447 ± 5e-05 S/m
x1 = 0.0107, x3 = 1.56e-05	0.0059 ± 6e-05 S/m
x1 = 0.0107, x3 = 1.953e-05	0.00725 ± 7e-05 S/m
x1 = 0.0107, x3 = 2.385e-05	0.0087 ± 9e-05 S/m
x1 = 0.0107, x3 = 2.86e-05	0.01028 ± 0.0001 S/m
x1 = 0.0107, x3 = 3.328e-05	0.0118 ± 0.00012 S/m
x1 = 0.0107, x3 = 3.79e-05	0.01332 ± 0.00013 S/m
x1 = 0.0107, x3 = 4.278e-05	0.0149 ± 0.00015 S/m
x1 = 0.0107, x3 = 4.74e-05	0.01635 ± 0.00016 S/m
x1 = 0.0107, x3 = 5.2e-05	0.0178 ± 0.00018 S/m
x1 = 0.01421, x3 = 1.044e-05	0.00364 ± 4e-05 S/m
x1 = 0.01421, x3 = 1.582e-05	0.0052 ± 5e-05 S/m
x1 = 0.01421, x3 = 2.09e-05	0.00666 ± 7e-05 S/m
x1 = 0.01421, x3 = 2.625e-05	0.00817 ± 8e-05 S/m
x1 = 0.01421, x3 = 3.215e-05	0.00982 ± 0.0001 S/m
x1 = 0.01421, x3 = 3.779e-05	0.01136 ± 0.00011 S/m
x1 = 0.01421, x3 = 4.365e-05	0.013 ± 0.00013 S/m
x1 = 0.01421, x3 = 4.958e-05	0.0146 ± 0.00015 S/m
x1 = 0.01421, x3 = 5.535e-05	0.01611 ± 0.00016 S/m
x1 = 0.0177, x3 = 7.16e-06	0.00235 ± 2e-05 S/m
x1 = 0.0177, x3 = 1.43e-05	0.00413 ± 4e-05 S/m
x1 = 0.0177, x3 = 2.14e-05	0.00587 ± 6e-05 S/m
x1 = 0.0177, x3 = 2.851e-05	0.0076 ± 8e-05 S/m
x1 = 0.0177, x3 = 3.535e-05	0.00922 ± 9e-05 S/m
x1 = 0.0177, x3 = 4.182e-05	0.0107 ± 0.00011 S/m
x1 = 0.0177, x3 = 4.861e-05	0.01232 ± 0.00012 S/m
x1 = 0.0177, x3 = 5.526e-05	0.0138 ± 0.00014 S/m
x1 = 0.0177, x3 = 6.177e-05	0.01534 ± 0.00015 S/m
x1 = 0.0177, x3 = 6.769e-05	0.0167 ± 0.00017 S/m
x1 = 0.0177, x3 = 7.386e-05	0.01804 ± 0.00018 S/m
x1 = 0.02116, x2 = 0.9788	0.0134 S/m and 0.0146 S/m and 0.0157 S/m
